# Patent publication US20070082818A1, “Agrochemical compositions” (priority 2003, published 2007)
# Structures can show the parent of a compound that is named as a salt.
# Columns and labels:
# [1] = test system: eight representative weed species; assay: Bioperformance enhancement of paraquat by amine/amide adjuvants, moving track sprayer; format: in vivo; details: paraquat dichloride spray at 10, 20 and 40 g/ha paraquat ion, 200 l/ha; adjuvant 0.5% by weight of spray volume (aminoethylpiperazine 0.625%); 7 days after treatment; mean over all species and combined rates; 0% no herbicidal effect, 100% complete kill
# Description: The bioperformance enhancement of paraquat in the presence of amines or amides of the present invention was evaluated. An aqueous formulation of paraquat dichloride containing 0.5% by weight of the quinuclidine (based on the weight of the amine salt), N-(aminopropyl) morphiline (based on the weight of the parent amine) or 1-(2-hydroxethyl-2-imidazolidinone) (based on the weight of the amide), all based on total spray volume was applied using a moving track sprayer to eight representative weed species at 10, 20 and 40 g/ha (based on paraquat ion). The spray volume was equivalent to 200 l/ha. For aminoethylpiperazine the formulation contained 0.625% by weight of the amine (based on the parent amine).
# The results are compared with an equivalent formulation containing only paraquat chloride.
# [2] = test system: drilled broad leaved & grass weeds; assay: Field trials of 200 g/l paraquat compositions applied as foliar spray; format: in vivo; details: 39% and 51% of the conventional adjuvant system substituted
# Description: Field Trials were conducted at 8 locations where the target plants were a range of drilled broad leaved & grass weeds. The 200 g/l paraquat compositions were applied as a foliar spray at application rates of 75, 150 & 300 g/ha paraquat ion, and at an application volume of 200 l/ha at a weed growth stage when the grasses were tillering & the broadleaved weeds were branching.
# [3] = format: physicochemical
# Description: It is to be understood that the term physical incompatibility in relation to adjuvants used in bipyridyl compositions indicates either gross separation of one or more components of the composition which may or may not be accompanied by a significant change in formulation rheology or bulk homogeneity. It is not necessarily essential that the composition is fully homogeneous in a strict physical sense provided that the composition is substantially homogeneous in the bulk. Thus a slight separation of a second phase may be acceptable provided that the separated phase remains fully dispersed in the bulk. […] This is obviously undesirable for a number of reasons. The term physical compatibility indicates the reverse of physical incompatibility as defined above.
# [4] = Physical compatibility of formulations by microscopic examination; format: physicochemical; details: corresponding formulations with about 120 g/l magnesium sulphate heptahydrate
Compound,Mean Activity (%) [1],other results
NCCN1CCNCC1 [Aminoethylpiperazine],72%,
O=C1NCCN1CCO [1-(2-hydroxethyl-2-imidazolidinone)],66%,
aminoethylpiperazine [AEP],,Effect on biological performance of substituting conventional adjuvant system by AEP [2]: no deleterious effect; Adjuvant loading compatible with compositions of WO 02/076212 ([3]; actual amine): ≥ 40 g/L; Physical compatibility when conventional surfactants were replaced by AEP [4]: significant improvement
"CCCCCCCCOC(=O)CC(C(=O)OCCCCCCCC)S(=O)(=O)O.[Na] (centres unmarked) [sodium dioctyl sulfosuccinate, reference compound]",,"Adjuvant level at which physical separation / two phases were observed ([3]; about 120 g/l paraquat ion, about 80 g/l diquat ion, alginate, about 120 g/l magnesium sulphate heptahydrate): below 10 g/l"
NCCCN1CCOCC1 [N-(Aminopropyl) morphiline],65%,
"C1CN2CCC1CC2 [Quinuclidine as hydrochloride salt, Quinuclidine]",68%,
